Experimental data: the supplement of paper PMC10307832

Compound: CC(C)(C)c1nc(-c2cccc(NS(=O)(=O)c3c(F)cccc3F)c2F)c(-c2ccnc(N)n2)s1 [Dabrafenib] + Nc1nc2[nH]cc(CCc3ccc(C(=O)N[C@@H](CCC(=O)O)C(=O)O)cc3)c2c(=O)[nH]1 [Pemetrexed] (partner 0.2 µM)
Assay: relative viability (nuclei count vs DMSO), 5 days (fraction); higher = more cells survive
Settings: first compound 0.3 µM
Procedure, shortened: (§1)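 Five library-drug doses in √10 steps were combined with a fixed anchor-drug dose, or a single drug was given alone, by pin tool to lung cancer cell lines in 1536-well plates the day after seeding. Nuclei were stained and counted after 5 days. Relative viability is the nuclei count in treated wells over that in vehicle wells, taken as the median of duplicate plates.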

Point of comparison: HARA, relative viability 0.247. Against it:
- NCI-H2087 — higher, 0.643
- LCLC-97TM1 — lower, 0.139
- NCI-H661 — higher, 0.933
- NCI-H2405 — higher, 0.839
- NCI-H1993 — higher, 0.669
- PC-3 [JPC-3] — higher, 1.14
- NCI-H2009 — higher, 0.701
- NCI-H2347 — higher, 0.405
- NCI-H520 — higher, 0.652
- LXF-289 — higher, 1.08
- LC-2-ad — higher, 0.286
- 201T — higher, 0.287
- NCI-H1666 — higher, 0.865
- NCI-H2023 — higher, 0.255
- NCI-H322M — higher, 0.572

Compound: NC(=O)c1ccc(N(C(N)=O)c2c(F)cccc2F)nc1-c1ccc(F)cc1F [VX-702] + O=C(CCCCCCC(=O)Nc1ccccc1)NO [Vorinostat] (partner 1 µM)
Assay: as above
Settings: first compound 0.02 µM
Procedure, shortened: as §1

Point of comparison: SK-LU-1, relative viability 0.9. Against it:
- EKVX — lower, 0.823
- COR-L23 — lower, 0.511
- NCI-H1437 — higher, 0.904
- RERF-LC-KJ — lower, 0.693
- NCI-H1734 — lower, 0.812
- BEN — lower, 0.63
- NCI-H460 — lower, 0.889
- H3255 — lower, 0.757
- NCI-H23 — lower, 0.491
- SW 1573 — higher, 0.937
- NCI-H838 — lower, 0.737
- EPLC-272H — lower, 0.401
- NCI-H3122 — higher, 1.36
- NCI-H1915 — lower, 0.578
- NCI-H1975 — lower, 0.752
- HCC-366 — lower, 0.402
- NCI-H2087 — lower, 0.673
- LCLC-97TM1 — lower, 0.732
- NCI-H661 — lower, 0.775
- NCI-H2405 — higher, 1.1
- NCI-H1993 — lower, 0.661
- PC-3 [JPC-3] — higher, 0.929
- NCI-H2009 — lower, 0.791
- NCI-H2347 — lower, 0.561
- NCI-H520 — lower, 0.744
- LXF-289 — lower, 0.816
- LC-2-ad — lower, 0.693
- 201T — higher, 0.966
- NCI-H1666 — higher, 1.07
- NCI-H2023 — lower, 0.615
- NCI-H322M — higher, 0.921
- HARA — lower, 0.527

Same assay, conditions: first compound 0.2 µM

Point of comparison: NCI-H661, relative viability 0.786. Against it:
- EKVX — lower, 0.671
- COR-L23 — lower, 0.47
- NCI-H1437 — higher, 0.827
- RERF-LC-KJ — lower, 0.686
- NCI-H1734 — lower, 0.759
- BEN — lower, 0.559
- NCI-H460 — lower, 0.692
- SK-LU-1 — lower, 0.716
- NCI-H23 — lower, 0.566
- SW 1573 — higher, 0.793
- NCI-H838 — lower, 0.702
- EPLC-272H — lower, 0.571
- NCI-H3122 — higher, 1.03
- NCI-H1915 — lower, 0.513
- NCI-H1975 — lower, 0.719
- HCC-366 — lower, 0.38
- NCI-H2087 — higher, 0.797
- LCLC-97TM1 — higher, 0.787
